The text below walks through data of ChEMBL document CHEMBL3853299 (Eur J Med Chem, 2016).

Structures are written as SMILES. Bounds are passed on as bounds.

A word on the inhibition: it is the change of the read-out against control, counted positive when it falls. High values mean a strong effect, low ones a weak effect. Broadly, the IC50 is the point on the concentration scale where inhibition reaches its midpoint.

Test [1] has as its target T1, Prothrombin (Homo sapiens, UniProt P00734). Kind of test: Inhibition of human thrombin at 1 ug/ml pre-incubated for 10 mins before Ac-FVR-AMC substrate addition and measured after 10 mins by fluorescence based assay.
For test [2], the target named is T1, Prothrombin. As to the kind of experiment: Inhibition of human thrombin pre-incubated for 10 mins before Ac-FVR-AMC substrate addition and measured after 10 mins by fluorescence based assay.
The species entered for a further test is Rattus norvegicus. Kind of test: Anticoagulant activity in rat assessed as inhibition of arteriovenous thrombosis at 0.5 mg/ml after 15 mins relative to control. The test is classed as functional.

Take `CCn1c(CNc2ccc(C(=N)N)cc2)nc2cc(C(=O)N(CCC(=O)O)c3ccccc3C)ccc21`: the inhibition on Prothrombin [1] was over 90%. The IC50 against Prothrombin [2] was found to be 3.11 nM. The “inhibition (INH)” value in the test listed under Rattus norvegicus was 77.93%.

On Prothrombin [1], `CCn1c(CNc2ccc(C(=N)N)cc2)nc2cc(C(=O)N(CCC(=O)O)c3ccc(C)cc3)ccc21` yielded an inhibition of over 90%. Further, inhibition against Prothrombin [2] was half-maximal at 4.98 nM (IC50).

For the molecule `CCn1c(CNc2ccc(C(=N)N)cc2)nc2cc(C(=O)N(CCC(=O)O)c3c(C)cccc3C)ccc21`, the inhibition at Prothrombin [1] was over 90%. This molecule displayed a half-maximal inhibitory concentration (IC50) against Prothrombin [2] of 3.1 nM.

`CCn1c(CNc2ccc(C(=N)N)cc2)nc2cc(C(=O)N(CCC(=O)O)c3ccc(F)cc3F)ccc21` showed an inhibition against Prothrombin [1] of over 90%. Besides, on Prothrombin [2], inhibition was half-maximal at 4.23 nM (IC50).

`CCn1c(CNc2ccc(C(=N)N)cc2)nc2cc(C(=O)N(CCC(=O)O)c3ccc(F)c(C)c3)ccc21`: on Prothrombin [1], the inhibition was over 90%. Inhibition against Prothrombin [2] was half-maximal at 6.27 nM (IC50).

`CCn1c(CNc2ccc(C(=N)N)cc2)nc2cc(C(=O)N(CCC(=O)O)c3ccc(C)cc3C)ccc21` returned an inhibition on Prothrombin [1] of over 90%. At Prothrombin [2], this molecule showed an IC50 of 16.4 nM.

Regarding `CCn1c(CNc2ccc(C(=N)N)cc2)nc2cc(C(=O)N(CCC(=O)O)c3cccc(C)c3C)ccc21`, the inhibition at Prothrombin [1] was over 90%. The IC50 against Prothrombin [2] worked out at 6.59 nM.

At Prothrombin [1], `CCn1c(CNc2ccc(C(=N)N)cc2)nc2cc(C(=O)N(CCC(=O)O)c3ccccc3)ccc21` showed an inhibition of over 90%. This molecule also yielded an IC50 against Prothrombin [2] of 4.69 nM.

With `Cn1c(CNc2ccc(C(=N)N)cc2)nc2cc(C(=O)N(CCC(=O)O)c3ccccn3)ccc21` [DABIGATRAN], the “inhibition (INH)” value in the test listed under Rattus norvegicus was determined as 85.07%.

In the case of `CCn1c(CNc2ccc(C(=N)N)cc2)nc2cc(C(=O)N(CCC(=O)O)c3cccc(C)c3)ccc21`, the inhibition against Prothrombin [1] was over 90%. The molecule further had an IC50 against Prothrombin [2] of 2.13 nM.

On to `CCn1c(CNc2ccc(C(=N)N)cc2)nc2cc(C(=O)N(CCC(=O)O)c3cc(C)ccn3)ccc21`, for which the inhibition at Prothrombin [1] is over 90%. The molecule further registered a half-inhibitory concentration (IC50) on Prothrombin [2] of 1.62 nM.

`CCn1c(CNc2ccc(C(=N)N)cc2)nc2cc(C(=O)N(CCC(=O)O)c3cccc(C)n3)ccc21` had an inhibition on Prothrombin [1] of over 90%. The molecule further had an IC50 on Prothrombin [2] of 0.96 nM. The “inhibition (INH)” value in the test filed under Rattus norvegicus is reported as 85.35%.
